Measurements: US6013809A, “Substituted heterocyclic benzocycloalkenes and the use thereof as substances having an analgesic effect” (Gruenenthal GmbH, priority 1997, dated 2000)
Where a name gives a salt, the structure may show the parent alone. Read-outs that look alike come from different tables or passages of the source.

Tests used:
[1] = target: T1, δ-opiate receptor (Rattus norvegicus, UniProt P33533); assay: δ-opiate receptor binding, displacement of (^3H)-2-D-Ala-deltorphin II on rat brain homogenates; design: species or system rat (male Wistar rats)
T1 construct: freshly prepared rat brain was homogenised in 50 mmoles/l Tris-HCl (pH 7.4); from tissue; host or cells: rat brain without cerebellum, pons and medulla oblongata, male Wistar rats; membrane homogenate
Experimental: Investigations for determining the affinity of compounds of formula I according to the invention for the δ-opiate receptor, which is a crucial prerequisite for analgesic properties, were performed on […] homogenates (rat brain homogenates, without the cerebellum, pons and medulla oblongata, from male Wistar rats). Selected compounds of formula I were used for the detection of δ-opiate receptor properties.
For this purpose, freshly prepared rat brain was homogenised in 50 mmoles/l Tris-HCl (pH 7.4) whilst cooling in ice, and was centrifuged for 10 minutes at 5000 g. After decanting and discarding the supernatant liquor, and renewed take-up and homogenisation of the membrane sediment in 50 mmoles/l Tris-HCl (pH 7.4), the homogenate was subsequently centrifuged for 20 minutes at 20,000 g and 4° C. This washing step was repeated once more. Thereafter, the supernatant liquor was decanted and the membrane sediment was homogenised in cold 50 mmoles/l Tris-HCl, 20% glycerol (w/v), 0.01% bacitracin (w/v) (pH 7.4) and was frozen in aliquots until testing was performed.
For the receptor binding tests, the aliquots were thawed out and diluted 1:10 with the binding test buffer.
The buffer used in the binding test comprised 50 mmoles/l Tris-HCl, 5 mmoles/l MgCl (pH 7.4), supplemented with 0.1% (w/v) bovine serum albumin. […] (^3 H)-2-D-Ala-deltorphin II was used as the radioactive ligand. The proportion of non-specific binding was determined in the presence of 10 mmoles/l naloxon.
The compounds according to the invention were added to further batches in series of concentrations and the displacement of the radioactive ligand from its specific binding site was determined. The respective triple batches were incubated for 90 minutes at 37° C. and were subsequently harvested by means of filtration through glass fibre filters (GF/B) for the determination of the radioactive ligand bound to the membrane homogenate. The radioactivity of the glass fibre filter discs was measured in a β-counter after adding a scintillator.
The affinity of the compounds according to the invention for the δ-opiate receptor was calculated as the IC50 according to the law of mass action by means of nonlinear regression. The K values in Table 1 are given as the mean value±the standard deviation from three mutually independent tests.

[2] = tested on: cancer patients; details: intrathecal, cancer patients on whom morphine no longer had an analgesic effect; cited from earlier work
[3] = 90 minutes at 37° C., pH 7.4, mean value ± standard deviation from three independent tests, read-out: δ-opiate receptor binding Ki
[4] = meaning of the second figure not stated, read-out: δ-opiate receptor binding Ki, second unlabelled figure printed behind the mean ± standard deviation

T1 sequence (P33533 whole entry): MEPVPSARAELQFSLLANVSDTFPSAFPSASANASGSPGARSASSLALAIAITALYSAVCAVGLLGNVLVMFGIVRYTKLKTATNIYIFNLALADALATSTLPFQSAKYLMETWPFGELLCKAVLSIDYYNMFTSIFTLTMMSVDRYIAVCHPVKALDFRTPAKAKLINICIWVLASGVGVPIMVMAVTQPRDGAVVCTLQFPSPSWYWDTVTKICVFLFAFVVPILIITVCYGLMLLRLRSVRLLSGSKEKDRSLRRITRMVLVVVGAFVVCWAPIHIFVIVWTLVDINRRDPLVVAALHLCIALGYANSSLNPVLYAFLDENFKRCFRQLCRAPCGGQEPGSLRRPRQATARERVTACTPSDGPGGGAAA

Question: With `CN(C)CC1=C(c2cccc(O)c2)c2ccccc2[S+]([O-])CC1` (racemic) [Example 3, 3-(4-dimethylaminomethyl-1-oxo-2,3-dihydro-1H-1λ^4-benzo[b]thiepin-5-yl)-phenol hydrochloride] as the compound, how does the Ki [1, 3] read?
Answer: The Ki was 2.1 ± 0.13 nM.

Question: With `CN(C)CC1=C(c2cccc(O)c2)c2ccccc2SCC1` [Example 1, 3-(4-dimethylaminomethyl-2,3-dihydro-benzo[b]thiepin-5-yl)-phenol hydrochloride] as the compound, how does the Ki [1, 3] read?
Answer: The Ki was 10.2 ± 4.5 nM.

Question: For `CN(C)CC1=C(c2cccc(O)c2)c2ccc3ccccc3c2OC1` [Example 2b, 3-(3-dimethylaminomethyl-2H-benzo[b]chromen-4-yl-phenol hydrochloride], which Ki [1, 3] is on record?
Answer: Its Ki is 348 ± 65 nM.

Question: For `CN(C)CC1=C(c2cccc(O)c2)c2ccc3ccccc3c2SC1` [Example 2c, 3-(2-dimethylaminomethyl-3H-4-thiaphenanthren-1-yl)-phenol hydrochloride], which Ki [1, 3] is on record?
Answer: Its Ki is 137 ± 13 nM.

Question: With `CN(C)CC1=C(c2cccc(O)c2)c2ccc3c(c2OC1)OCCO3` [Example 2d, 3-(7-dimethylaminomethyl-2,3-dihydro-6H-1,4,5,-trioxa-phenanthren-8-yl)-phenol hydrochloride] as the compound, how does the Ki [1, 3] read?
Answer: The Ki was 18.4 ± 1.6 nM.

Question: With `CN(C)CC1=C(c2cccc(O)c2)c2ccccc2OCC1` [Example 2e, 3-(4-dimethylaminomethyl-2,3-dihydro-benzo[b]oxepin-5-yl)-phenol hydrochloride] as the compound, how does the Ki [1, 3] read?
Answer: Its Ki is 8.5 ± 3 nM.

Question: With `COc1ccc2c(c1)OCCC(CN(C)C)=C2c1cccc(O)c1` [Example 2g, 3-(4-dimethylaminomethyl-8-methoxy-2,3-dihydrobenzo[b]oxepin-5-yl)-phenol hydrochloride] as the compound, how does the Ki [1, 3] read?
Answer: Its Ki is 6.19 nM.

Question: And the Ki [1, 4]?
Answer: Its Ki is 6.01 nM.

Question: Which Ki [1, 3] does the source give for `COc1ccc2c(c1)SCCC(CN(C)C)=C2c1cccc(O)c1` [Example 2h, 3-(4-dimethylaminomethyl-8-methoxy-2,3-dihydrobenzo[b]thiepin-5-yl)-phenolhydrochloride] here?
Answer: Its Ki is 2.67 nM.

Question: What about the Ki [1, 4] of the same compound?
Answer: Its Ki is 1.76 nM.

Question: With `CN(C)CC1=C(c2cccc(O)c2)c2ccccc2SC1` [Example 5, 3-(3-dimethylaminomethyl-2H-thiochromen-4-yl)-phenol hydrochloride] as the compound, how does the Ki [1, 3] read?
Answer: Its Ki is 68.2 ± 10.1 nM.

Question: For `CN(C)CC1=C(c2cccc(O)c2)c2ccccc2OC1` [Example 7, 3-(3-dimethylaminomethyl-2H-chromen-4-yl)-phenol hydrochloride], which Ki [1, 3] is on record?
Answer: The Ki was 68.4 ± 8.4 nM.

Question: Which Ki [1, 3] does the source give for `CN(C)CC1=C(c2cccc(O)c2)c2cc(O)ccc2OC1(C)C` [Example 8, 3-dimethylaminomethyl-4-(3-hydroxy-phenyl)-2,2-di-methyl-2H-chromen-6-ol hydrochloride] here?
Answer: Its Ki is 393 ± 46 nM.

Question: For `COc1ccc2c(c1)[S+]([O-])CCC(CN(C)C)=C2c1cccc(O)c1` (centres unmarked) [Example 9a, 3-(4-dimethylaminomethyl-8-methoxy-1-oxo-2,3-dihydro-1H-1-2-4-benzo[b]thiepin-5-yl)-phenol hydrochloride], which Ki [1, 3] is on record?
Answer: Its Ki is 1.75 nM.

Question: For `CN(C)CC1=C(c2cccc(O)c2)c2ccc(O)cc2SCC1` [Example 11b, 4-dimethylaminomethyl-5-(3-hydroxy-phenyl)-2,3-dihydro-benzo[b]thiepin-8-ol hydrochloride], which Ki [1, 3] is on record?
Answer: Its Ki is 6.43 nM.

Question: What about the Ki [1, 4] of the same compound?
Answer: Its Ki is 6.71 nM.

Question: For “D-alanine^2 -D-leucine^5 enkeplialin [DADL]”, which analgesic effect [2] is on record?
Answer: The analgesic effect was “long-lasting analgesic effect”.
